Reference: patent publication US11896573B2, “Pharmaceutical compositions and pharmacokinetics of a gamma-hydroxybutyric acid derivative” (priority 2020, dated 2024)
Where two headings read alike, the source gives them in different places.

Assay: Single ascending dose study, plasma pharmacokinetics of Compound (1) and GHB
Type: in vivo, human
Settings: fasted; for Tmax / AUC(0-inf) / AUC(0-t) / Cmax / half-life: human, plasma; for Tmax: read-out: Compound (1) plasma Tmax, Median; for AUC(0-inf) / AUC(0-t) / Cmax / half-life: po
Procedure: The plasma concentrations of Compound (1) and GHB in plasma in healthy human subjects were measured using liquid chromatography tandem mass-spectroscopy and evaluated using PHOENIX™ WINNONLIN® version 8.1 (Pharsight Corporation, USA) and MICROSOFT® EXCEL® (Microsoft Corporation, USA).
All randomized subjects who received Compound (1), with available pharmacokinetic (PK) data and without relevant deviations interfering with the PK evaluations, were included. Subjects who received only placebo were excluded from the PK population. In addition, the PK population was used for the summaries and analyses of all PK data.
A randomized, double-blind, single-center, single ascending dose study was undertaken to evaluate the safety, tolerability, and pharmacokinetics of Compound (1) and GHB in healthy subjects.
Compound (1) was administered to randomized healthy subjects at doses from 0.1 g to 7.25 g as an aqueous solution of Compound (1) in water. The subjects fasted for at least 10 hours overnight with clear liquids allowed prior to dosing and the subjects were fasted for 4 hours after dosing.
Plasma samples were obtained at various times following oral administration and the plasma concentrations of Compound (1) and GHB were measured.

[1] = Cohort 7 (7.25 g) single oral dose

Structure (SMILES): CC(C)[C@H](N)C(=O)OCCCC(=O)O [Compound (1), 4-((L-valyl)oxy)butanoic acid]
- Compound (1) CL/F, Max [1]: 433 L/h
- Compound (1) CL/F, Mean [1]: 376 L/h
- Compound (1) CL/F, Median [1]: 375 L/h
- Compound (1) CL/F, Min [1]: 298 L/h
- Compound (1) plasma AUC0-inf, Max [1]: 24300 ng·h/mL
- Compound (1) plasma AUC0-inf, Min [1]: 16700 ng·h/mL
- Compound (1) plasma AUC0-tlast, Max [1]: 24300 ng·h/mL
- Compound (1) plasma AUC0-tlast, Min [1]: 16700 ng·h/mL
- Compound (1) plasma Cmax, Max [1]: 26000 ng/mL
- Compound (1) plasma t1/2, Max [1]: 1.28 h
- Compound (1) plasma t1/2, Min [1]: 0.92 h
- Tmax (0.1 g, Cohort 1 (0.10 g) single oral dose): 0.25 h
- Tmax (0.5 g, Cohort 2 (0.50 g) single oral dose): 0.75 h
- Tmax (1.5 g, Cohort 3 (1.50 g) single oral dose): 1 h
- Tmax (4.5 g, Cohort 5 (4.50 g) single oral dose): 0.75 h
- AUC(0-inf) (0.1 g, Cohort 1 (0.10 g) single oral dose, read-out: Compound (1) plasma AUC0-inf, Mean): 250 ng·h/mL
- AUC(0-inf) (0.1 g, Cohort 1 (0.10 g) single oral dose, read-out: Compound (1) plasma AUC0-inf, Median): 252 ng·h/mL
- AUC(0-t) (0.1 g, Cohort 1 (0.10 g) single oral dose, read-out: Compound (1) plasma AUC0-tlast, Mean): 249 ng·h/mL
- AUC(0-t) (0.1 g, Cohort 1 (0.10 g) single oral dose, read-out: Compound (1) plasma AUC0-tlast, Median): 250 ng·h/mL
- Cmax (0.1 g, Cohort 1 (0.10 g) single oral dose, read-out: Compound (1) plasma Cmax, Mean): 420 ng/mL
- Cmax (0.1 g, Cohort 1 (0.10 g) single oral dose, read-out: Compound (1) plasma Cmax, Median): 373 ng/mL
- half-life (0.1 g, Cohort 1 (0.10 g) single oral dose, read-out: Compound (1) plasma t1/2, Mean (converted)): 0.7 h
- half-life (0.1 g, Cohort 1 (0.10 g) single oral dose, read-out: Compound (1) plasma t1/2, Median (converted)): 0.71 h
- AUC(0-inf) (0.5 g, Cohort 2 (0.50 g) single oral dose, read-out: Compound (1) plasma AUC0-inf, Mean): 1290 ng·h/mL
- AUC(0-inf) (0.5 g, Cohort 2 (0.50 g) single oral dose, read-out: Compound (1) plasma AUC0-inf, Median): 1280 ng·h/mL
- AUC(0-t) (0.5 g, Cohort 2 (0.50 g) single oral dose, read-out: Compound (1) plasma AUC0-tlast, Mean): 1290 ng·h/mL
- AUC(0-t) (0.5 g, Cohort 2 (0.50 g) single oral dose, read-out: Compound (1) plasma AUC0-tlast, Median): 1280 ng·h/mL
- Cmax (0.5 g, Cohort 2 (0.50 g) single oral dose, read-out: Compound (1) plasma Cmax, Mean): 1540 ng/mL
- Cmax (0.5 g, Cohort 2 (0.50 g) single oral dose, read-out: Compound (1) plasma Cmax, Median): 1270 ng/mL
- half-life (0.5 g, Cohort 2 (0.50 g) single oral dose, read-out: Compound (1) plasma t1/2, Mean (converted)): 1.11 h
- half-life (0.5 g, Cohort 2 (0.50 g) single oral dose, read-out: Compound (1) plasma t1/2, Median (converted)): 1.19 h
- AUC(0-inf) (1.5 g, Cohort 3 (1.50 g) single oral dose, read-out: Compound (1) plasma AUC0-inf, Mean): 2480 ng·h/mL
- AUC(0-inf) (1.5 g, Cohort 3 (1.50 g) single oral dose, read-out: Compound (1) plasma AUC0-inf, Median): 2710 ng·h/mL
- AUC(0-t) (1.5 g, Cohort 3 (1.50 g) single oral dose, read-out: Compound (1) plasma AUC0-tlast, Mean): 2860 ng·h/mL
- AUC(0-t) (1.5 g, Cohort 3 (1.50 g) single oral dose, read-out: Compound (1) plasma AUC0-tlast, Median): 2960 ng·h/mL
- Cmax (1.5 g, Cohort 3 (1.50 g) single oral dose, read-out: Compound (1) plasma Cmax, Mean): 3360 ng/mL
- Cmax (1.5 g, Cohort 3 (1.50 g) single oral dose, read-out: Compound (1) plasma Cmax, Median): 2920 ng/mL
- half-life (1.5 g, Cohort 3 (1.50 g) single oral dose, read-out: Compound (1) plasma t1/2, Mean (converted)): 1.04 h
- half-life (1.5 g, Cohort 3 (1.50 g) single oral dose, read-out: Compound (1) plasma t1/2, Median (converted)): 1.06 h
- AUC(0-inf) (3 g, Cohort 4 (3.00 g) single oral dose, read-out: Compound (1) plasma AUC0-inf, Mean): 7520 ng·h/mL
- AUC(0-inf) (3 g, Cohort 4 (3.00 g) single oral dose, read-out: Compound (1) plasma AUC0-inf, Median): 7410 ng·h/mL
- AUC(0-t) (3 g, Cohort 4 (3.00 g) single oral dose, read-out: Compound (1) plasma AUC0-tlast, Mean): 7510 ng·h/mL
- AUC(0-t) (3 g, Cohort 4 (3.00 g) single oral dose, read-out: Compound (1) plasma AUC0-tlast, Median): 7410 ng·h/mL
- Cmax (3 g, Cohort 4 (3.00 g) single oral dose, read-out: Compound (1) plasma Cmax, Mean): 11300 ng/mL
- Cmax (3 g, Cohort 4 (3.00 g) single oral dose, read-out: Compound (1) plasma Cmax, Median): 11200 ng/mL
- half-life (3 g, Cohort 4 (3.00 g) single oral dose, read-out: Compound (1) plasma t1/2, Mean (converted)): 1.15 h
- half-life (3 g, Cohort 4 (3.00 g) single oral dose, read-out: Compound (1) plasma t1/2, Median (converted)): 1.12 h
- AUC(0-inf) (4.5 g, Cohort 5 (4.50 g) single oral dose, read-out: Compound (1) plasma AUC0-inf, Mean): 11400 ng·h/mL
- AUC(0-inf) (4.5 g, Cohort 5 (4.50 g) single oral dose, read-out: Compound (1) plasma AUC0-inf, Median): 11600 ng·h/mL
- AUC(0-t) (4.5 g, Cohort 5 (4.50 g) single oral dose, read-out: Compound (1) plasma AUC0-tlast, Mean): 11100 ng·h/mL
- AUC(0-t) (4.5 g, Cohort 5 (4.50 g) single oral dose, read-out: Compound (1) plasma AUC0-tlast, Median): 11600 ng·h/mL
- Cmax (4.5 g, Cohort 5 (4.50 g) single oral dose, read-out: Compound (1) plasma Cmax, Mean): 12800 ng/mL
- Cmax (4.5 g, Cohort 5 (4.50 g) single oral dose, read-out: Compound (1) plasma Cmax, Median): 14000 ng/mL
- half-life (4.5 g, Cohort 5 (4.50 g) single oral dose, read-out: Compound (1) plasma t1/2, Mean (converted)): 1.14 h
- half-life (4.5 g, Cohort 5 (4.50 g) single oral dose, read-out: Compound (1) plasma t1/2, Median (converted)): 1.13 h
- AUC(0-inf) (6 g, Cohort 6 (6.00 g) single oral dose, read-out: Compound (1) plasma AUC0-inf, Mean): 18400 ng·h/mL
- AUC(0-inf) (6 g, Cohort 6 (6.00 g) single oral dose, read-out: Compound (1) plasma AUC0-inf, Median): 18000 ng·h/mL
- AUC(0-t) (6 g, Cohort 6 (6.00 g) single oral dose, read-out: Compound (1) plasma AUC0-tlast, Mean): 18400 ng·h/mL
- AUC(0-t) (6 g, Cohort 6 (6.00 g) single oral dose, read-out: Compound (1) plasma AUC0-tlast, Median): 18000 ng·h/mL
- Cmax (6 g, Cohort 6 (6.00 g) single oral dose, read-out: Compound (1) plasma Cmax, Mean): 17600 ng/mL
- Cmax (6 g, Cohort 6 (6.00 g) single oral dose, read-out: Compound (1) plasma Cmax, Median): 16500 ng/mL
- half-life (6 g, Cohort 6 (6.00 g) single oral dose, read-out: Compound (1) plasma t1/2, Mean (converted)): 1.18 h
- half-life (6 g, Cohort 6 (6.00 g) single oral dose, read-out: Compound (1) plasma t1/2, Median (converted)): 1.18 h
- AUC(0-inf) (7.25 g, Cohort 7 (7.25 g) single oral dose, read-out: Compound (1) plasma AUC0-inf, Mean): 19600 ng·h/mL
- AUC(0-inf) (7.25 g, Cohort 7 (7.25 g) single oral dose, read-out: Compound (1) plasma AUC0-inf, Median): 19400 ng·h/mL
- AUC(0-t) (7.25 g, Cohort 7 (7.25 g) single oral dose, read-out: Compound (1) plasma AUC0-tlast, Mean): 19600 ng·h/mL
- AUC(0-t) (7.25 g, Cohort 7 (7.25 g) single oral dose, read-out: Compound (1) plasma AUC0-tlast, Median): 19400 ng·h/mL
- Cmax (7.25 g, Cohort 7 (7.25 g) single oral dose, read-out: Compound (1) plasma Cmax, Mean): 22100 ng/mL
- Cmax (7.25 g, Cohort 7 (7.25 g) single oral dose, read-out: Compound (1) plasma Cmax, Median): 22200 ng/mL
- half-life (7.25 g, Cohort 7 (7.25 g) single oral dose, read-out: Compound (1) plasma t1/2, Mean (converted)): 1.11 h
- half-life (7.25 g, Cohort 7 (7.25 g) single oral dose, read-out: Compound (1) plasma t1/2, Median (converted)): 1.12 h
- Tmax (Cohort 4 (3.00 g) single oral dose): 0.5 h
- Tmax (Cohort 6 (6.00 g) single oral dose): 0.5 h
- Tmax [1]: 0.62 h
